Experiment [1] has as its target T1, α4β7 integrin (Homo sapiens (Human), UniProt P13612+P26010). The experiment is described as follows: Integrin Adhesion Assay: Protocol 1 (MAdCAM-coated plate, RPMI-8866 cells, CellTiter GLO readout). It is filed as cell-based. In short, it runs like this:
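RPMI-8866 cells (2×10^6 per mL) added with compounds (1% DMSO) to MAdCAM-coated wells blocked in HEPES/NaCl buffer with 1 mM MnCl2, 0.1 mM CaCl2, 1% BSA; 1 h at 37° C, 5% CO2. After four washes, bound cells read by CellTiter GLO luminescence; % inhibition vs DMSO and control wells, 4-parameter fit.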
A general note: In ATP-based viability assays light output follows the ATP content of the culture.

Experiment [2] concerns the target T1, α4β7 integrin. The experiment is described as follows: Integrin Adhesion Assay: Protocol 4 (MAdCAM-coated plate, RPMI-8866 cells with stable LOF mutation of the ITGB1 gene). It is filed as cell-based. Put shortly:
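RPMI-8866 cells with CRISPR/Cas9 knockout of ITGB1 (2×10^6/mL) were added to MAdCAM-coated wells with compound (1% DMSO) in HEPES/NaCl buffer with 1 mM MnCl2, 0.1 mM CaCl2 and 1% BSA, then incubated 1 h at 37 °C. After four washes, adherent cells were quantified by CellTiter-Glo luminescence. Percent inhibition versus DMSO and control compound was fitted to 4-parameter curves.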

The mark [3] stands for this setting: RPMI-8866 cells with stable LOF mutation of the ITGB1 gene, read-out: Mean IC50 α4β7 KO^a.

This passage reports IC50 results from patent US20250313535A1, “ALPHA 4 BETA 7 INTEGRIN MODULATORS AND USES THEREOF” (DICE MOLECULES SV, INC., priority 2022, published 2025).

T1 sequence (P13612 34-1032): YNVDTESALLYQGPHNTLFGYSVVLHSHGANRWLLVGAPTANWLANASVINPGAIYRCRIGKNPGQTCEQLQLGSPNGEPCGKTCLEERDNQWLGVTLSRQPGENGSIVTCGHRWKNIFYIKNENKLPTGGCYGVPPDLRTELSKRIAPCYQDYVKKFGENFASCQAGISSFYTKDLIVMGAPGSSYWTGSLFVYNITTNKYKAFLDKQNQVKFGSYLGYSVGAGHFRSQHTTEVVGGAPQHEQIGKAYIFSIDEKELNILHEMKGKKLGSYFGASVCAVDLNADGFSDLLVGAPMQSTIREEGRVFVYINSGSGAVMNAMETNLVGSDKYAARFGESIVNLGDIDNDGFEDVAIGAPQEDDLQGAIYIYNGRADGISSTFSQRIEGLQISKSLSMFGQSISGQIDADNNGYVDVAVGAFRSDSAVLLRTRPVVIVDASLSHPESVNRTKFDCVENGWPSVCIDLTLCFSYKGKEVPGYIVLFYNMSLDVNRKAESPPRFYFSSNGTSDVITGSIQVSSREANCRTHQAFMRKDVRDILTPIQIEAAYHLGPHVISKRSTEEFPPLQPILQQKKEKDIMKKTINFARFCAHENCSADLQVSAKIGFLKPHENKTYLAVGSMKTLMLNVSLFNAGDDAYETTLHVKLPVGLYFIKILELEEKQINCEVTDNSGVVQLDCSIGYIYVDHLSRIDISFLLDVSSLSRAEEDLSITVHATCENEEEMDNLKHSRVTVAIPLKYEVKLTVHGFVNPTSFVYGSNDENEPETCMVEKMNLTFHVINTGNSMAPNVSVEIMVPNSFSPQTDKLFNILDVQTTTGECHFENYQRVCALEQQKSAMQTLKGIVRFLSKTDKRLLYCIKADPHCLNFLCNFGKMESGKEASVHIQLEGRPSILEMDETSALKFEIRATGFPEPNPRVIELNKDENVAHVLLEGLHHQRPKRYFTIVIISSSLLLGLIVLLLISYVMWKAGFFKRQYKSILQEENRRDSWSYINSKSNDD
T1 sequence (P26010 20-798): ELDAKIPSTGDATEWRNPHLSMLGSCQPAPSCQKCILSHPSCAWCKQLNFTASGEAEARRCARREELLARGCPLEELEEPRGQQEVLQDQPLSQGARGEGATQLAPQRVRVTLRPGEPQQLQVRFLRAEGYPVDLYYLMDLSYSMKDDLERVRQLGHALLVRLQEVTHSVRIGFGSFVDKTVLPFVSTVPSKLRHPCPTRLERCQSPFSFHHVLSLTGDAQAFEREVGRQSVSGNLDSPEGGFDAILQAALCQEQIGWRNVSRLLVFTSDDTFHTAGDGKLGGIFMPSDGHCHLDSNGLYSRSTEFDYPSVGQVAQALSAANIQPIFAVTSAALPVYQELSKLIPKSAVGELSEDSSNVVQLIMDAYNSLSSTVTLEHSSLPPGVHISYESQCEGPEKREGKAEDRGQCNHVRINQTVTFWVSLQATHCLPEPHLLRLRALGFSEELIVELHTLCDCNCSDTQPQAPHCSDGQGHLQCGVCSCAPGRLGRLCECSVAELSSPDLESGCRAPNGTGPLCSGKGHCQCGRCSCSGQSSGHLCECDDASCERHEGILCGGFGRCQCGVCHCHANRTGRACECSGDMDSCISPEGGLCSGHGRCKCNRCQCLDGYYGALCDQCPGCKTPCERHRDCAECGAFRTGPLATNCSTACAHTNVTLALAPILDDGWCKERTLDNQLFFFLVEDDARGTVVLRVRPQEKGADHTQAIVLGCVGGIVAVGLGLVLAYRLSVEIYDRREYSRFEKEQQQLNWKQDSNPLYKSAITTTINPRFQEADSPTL

As for `Cn1c(=O)c(-c2cccc3c(C[C@H](NC(=O)C45CC(N6CCOCC6)(C4)C5)C(=O)O)cccc23)c(C(F)(F)F)c2ccccc21` [Compound 459], the IC50 in experiment [1] and in experiment [2] (setting [3]) was 100 to 1000 nM in each case.

Turning to `CN(C)Cc1cccc2c(-c3cccc4c(C[C@H](NC(=O)[C@]5(C)CC[C@H](N6CCC(F)(F)CC6)CC5)C(=O)O)cccc34)nccc12` [Compound 425], the IC50 in experiment [1] and in experiment [2] (setting [3]) was 100 to 1000 nM each time.

In the case of `Cn1c(=O)c(-c2cccc3c(C[C@H](NC(=O)c4c(F)cccc4C(F)(F)F)C(=O)O)cccc23)c(C(F)(F)F)c2ccccc21` [Compound 443], the figures for the IC50 in experiment [1] and in experiment [2] (setting [3]) were 100 to 1000 nM and > 1000 nM, respectively.

For `Cn1c(=O)c(-c2cccc3c(C[C@H](NC(=O)[C@]4(C)CC[C@@H](N5CCS(=O)(=O)CC5)CC4)C(=O)O)cccc23)c(C(F)(F)F)c2ccccc21` [Compound 404], the IC50 in experiment [1] and in experiment [2] (setting [3]) was 100 to 1000 nM throughout.

`Cn1c(=O)c(-c2cccc3c(C[C@H](NC(=O)c4c(F)ccc(C(F)(F)F)c4F)C(=O)O)cccc23)c(C(F)(F)F)c2ccccc21` [Compound 461]: the IC50 in experiment [1] and in experiment [2] (setting [3]) was 100 to 1000 nM each time.

With `Cn1c(=O)c(-c2cccc3c(C[C@H](NC(=O)c4c(F)cc(N5CCC(CO)C5)cc4F)C(=O)O)cccc23)c(C(F)(F)F)c2ccccc21` (stereo partly drawn) [Compound 462], the IC50 in experiment [1] and in experiment [2] (setting [3]) was 100 to 1000 nM in each case.

With `CN(C)CC1CN(c2cc(F)c(C(=O)N[C@@H](Cc3cccc4c(-c5c(C(F)(F)F)c6ccccc6n(C)c5=O)cccc34)C(=O)O)c(F)c2)CCO1` (stereo partly drawn) [Compound 335], the IC50 in experiment [1] and in experiment [2] (setting [3]) was 100 to 1000 nM throughout.

With `Cc1cccc(C)c1-c1cc(C(=O)N[C@@H](Cc2cccc3c(-n4c(=O)cc(CCN5CC(F)C5)n(C)c4=O)cccc23)C(=O)O)c(F)c(C(F)(F)F)c1` [Compound 1056], the IC50 (usually the concentration that inhibits the measured activity by half) in experiment [1] (protocol not given) is 100 to 1000 nM; in experiment [2] (Protocol 4, RPMI-8866 cells with LOF mutation of ITGB1, MAdCAM, read-out: Mean IC50 α4β7 KO), > 1000 nM.

Regarding `Cn1c(=O)c(-c2cccc3c(C[C@H](NC(=O)c4c(F)cc(N5CCOC(CN6CCCC6)C5)cc4F)C(=O)O)cccc23)c(C(F)(F)F)c2ccccc21` (stereo partly drawn) [Compound 339], the IC50 in experiment [1] and in experiment [2] (setting [3]) was 100 to 1000 nM each time.

With `CN1CCC(c2cc(F)c(C(=O)N[C@@H](Cc3cccc4c(-c5c(C(F)(F)F)c6ccccc6n(C)c5=O)cccc34)C(=O)O)c(F)c2)C1` (stereo partly drawn) [Compound 372], the IC50 in experiment [1] and in experiment [2] (setting [3]) was 100 to 1000 nM each time.

In the case of `Cn1c(=O)c(-c2cccc3c(C[C@H](NC(=O)c4c(F)cc(N5CC(F)(F)OC(F)(F)C5)cc4F)C(=O)O)cccc23)c(C(F)(F)F)c2ccccc21` [Compound 341], the IC50 in experiment [1] and in experiment [2] (setting [3]) was 100 to 1000 nM in each case.

With `Cn1ccc(C(F)(F)F)c(-c2cccc3c(C[C@H](NC(=O)c4c(F)cc(N5CCOCC5c5ccc(C(F)(F)F)cc5)cc4F)C(=O)O)cccc23)c1=O` (stereo partly drawn) [Compound 442], the IC50 in experiment [1] and in experiment [2] (setting [3]) was 100 to 1000 nM throughout.

Regarding `CN(C)CCc1cc(F)c(C(=O)N[C@@H](Cc2cccc3c(-c4c(C(F)(F)F)c5ccccc5n(C)c4=O)cccc23)C(=O)O)c(F)c1` [Compound 367], the IC50 in experiment [1] and in experiment [2] (setting [3]) was 100 to 1000 nM each time.

With `Cn1c(=O)c(-c2cccc3c(C[C@H](NC(=O)[C@]4(C)CC[C@@H](N5CC(F)(F)C5)CC4)C(=O)O)cccc23)c(C(F)(F)F)c2ccccc21` [Compound 399], the IC50 was in the range of 100 to 1000 nM in experiment [1] and 10 to 100 nM in experiment [2] (setting [3]).

Consider `CC[C@@](Cc1cccs1)(C(=O)N[C@@H](Cc1cccc2c(-n3c(=O)ccn(C)c3=O)cccc12)C(=O)O)c1ccccc1` [Compound 292], for which the IC50 in experiment [1] and in experiment [2] (setting [3]) was 100 to 1000 nM throughout.

As for `Cn1c(=O)c(-c2cccc3c(C[C@H](NC(=O)[C@]4(C)CC[C@H](N5CC(F)(F)C5)CC4)C(=O)O)cccc23)c(C(F)(F)F)c2ccccc21` [Compound 400], the IC50 in experiment [1] and in experiment [2] (setting [3]) was 100 to 1000 nM throughout.

Take `Cn1c(=O)c(-c2cccc3c(C[C@H](NC(=O)c4c(F)cc(C5CCNCC5)cc4F)C(=O)O)cccc23)c(C(F)(F)F)c2ccccc21` [Compound 365]: the IC50 in experiment [1] and in experiment [2] (setting [3]) was 100 to 1000 nM each time.

Regarding `Cn1c(=O)c(-c2cccc3c(C[C@H](NC(=O)C45CC(C(F)F)(C4)C5)C(=O)O)cccc23)c(C(F)(F)F)c2ccccc21` [Compound 390], the IC50 in experiment [1] and in experiment [2] (setting [3]) was 100 to 1000 nM throughout.

For `Cc1n[nH]c(C(F)(F)F)c1-c1cc(F)c(C(=O)N[C@@H](Cc2cccc3c(-c4c(C(F)(F)F)c5ccccc5n(C)c4=O)cccc23)C(=O)O)c(F)c1` [Compound 310], the IC50 in experiment [1] and in experiment [2] (setting [3]) was 100 to 1000 nM each time.

On to `Cn1ccc(C(F)(F)F)c(-c2cccc3c(C[C@H](NC(=O)c4c(F)cc(N5CCOC[C@H]5c5ccccc5)cc4F)C(=O)O)cccc23)c1=O` [Compound 438], for which the values for the IC50 in experiment [1] and in experiment [2] (setting [3]) were 100 to 1000 nM and 10 to 100 nM, respectively.

As to `Cn1c(=O)c(-c2cccc3c(C[C@H](NC(=O)c4c(F)cc(N5CC6(COC6)C5)cc4F)C(=O)O)cccc23)c(C(F)(F)F)c2ccccc21` [Compound 426], the IC50 in experiment [1] and in experiment [2] (setting [3]) was 100 to 1000 nM throughout.

With `Cn1c(C(=O)N[C@@H](Cc2cccc3c(-c4c(C(F)(F)F)c5ccccc5n(C)c4=O)cccc23)C(=O)O)cnc1C1CCOCC1` [Compound 328], the half-inhibitory concentration (IC50) in experiment [1] and in experiment [2] (setting [3]) was 100 to 1000 nM each time.

Regarding `CC[C@@](Cc1cccs1)(C(=O)N[C@@H](Cc1cccc2c(-c3c(C(F)(F)F)ccn(C)c3=O)nccc12)C(=O)O)c1ccccc1` [Compound 291], the IC50 in experiment [1] and in experiment [2] (setting [3]) was 100 to 1000 nM in each case.

Turning to `Cn1c(=O)c(-c2cccc3c(C[C@H](NC(=O)c4c(F)ccc(-c5ccncc5)c4F)C(=O)O)cccc23)c(C(F)(F)F)c2ccccc21` [Compound 311], the IC50 in experiment [1] and in experiment [2] (setting [3]) was 100 to 1000 nM throughout.

Regarding `Cn1c(=O)c(-c2cccc3c(C[C@H](NC(=O)c4c(F)cc(N5CCOc6ccccc65)cc4F)C(=O)O)cccc23)c(C(F)(F)F)c2ccccc21` [Compound 332], the IC50 in experiment [1] and in experiment [2] (setting [3]) was 100 to 1000 nM throughout.

Consider `Cn1c(=O)c(-c2cccc3c(C[C@H](NC(=O)[C@]4(C(F)(F)F)CC[C@H](N5CCOC[C@@H]5C(F)(F)F)CC4)C(=O)O)cccc23)c(C(F)(F)F)c2ccccc21` [Compound 423], for which the concentration for half-maximal inhibition (IC50) in experiment [1] and in experiment [2] (setting [3]) was 100 to 1000 nM in each case.

Take `Cn1c(=O)c(-c2cccc3c(C[C@H](NC(=O)C45CC(NCC(F)(F)F)(C4)C5)C(=O)O)cccc23)c(C(F)(F)F)c2ccccc21` [Compound 447]: the IC50 in experiment [1] and in experiment [2] (setting [3]) was 100 to 1000 nM throughout.

Take `Cn1c(=O)c(-c2cccc3c(C[C@H](NC(=O)c4c(F)cc(CCN5CC(F)C5)cc4F)C(=O)O)cccc23)c(C(F)(F)F)c2ccccc21` [Compound 371]: the IC50 in experiment [1] and in experiment [2] (setting [3]) was 100 to 1000 nM throughout.

`Cn1c(=O)c(-c2cccc3c(C[C@H](NC(=O)c4c(F)cc(C5CCNC5)cc4F)C(=O)O)cccc23)c(C(F)(F)F)c2ccccc21` (stereo partly drawn) [Compound 366]: the IC50 in experiment [1] and in experiment [2] (setting [3]) was 100 to 1000 nM throughout.

In the case of `Cn1c(=O)c(-c2cccc3c(C[C@H](NC(=O)c4c(F)ccc(C5CCC(F)(F)CC5)c4F)C(=O)O)cccc23)c(C(F)(F)F)c2ccccc21` [Compound 382], the IC50 in experiment [1] and in experiment [2] (setting [3]) was 100 to 1000 nM throughout.
